Blank lines part the entries; values can stand above or below the compound they belong to.
What was measured:
Assay type in all cases: physicochemical
[1] = DVS (dynamic vapor sorption) characterization; conditions: for Crystalline form before and after DVS (XRPD comparison): 0-95% humidity change; for DVS weight change / Hygroscopicity: 25° C., 20.0% RH to 80.0% RH; for Hygroscopicity: DVS
Experimental: DVS refers to dynamic vapor sorption: The measurement was conducted with a Surface Measurement Systems advantage 2 at 25° C., starting from 50% humidity in humidity range of 0%-95% with a step size of 10%. The judging criterion was that the mass change of each gradient dM/dT is less than 0.002 and TMAX is less than 360 min in two circles.

[2] = Influencing factor study of crystalline form α of hydrochloride and crystalline form I of hydrobromide
Experimental: Sample of the crystalline form α of the hydrochloride and the crystalline form I of the hydrobromide of the compound of formula II were let stand open to examine the stability of the samples in conditions of illumination (4500 Lux), high temperature (40° C. and 60° C.) and high humidity (RH 75% and RH 92.5%) in a period of 30 days.

[3] = Long-term/accelerated stability study of crystalline form α of hydrochloride and crystalline form I of hydrobromide
Experimental: The crystalline form α of the hydrochloride of the compound of formula II was let stand in conditions of 25° C./60% RH and 40° C./75% RH to examine its stability.
The crystalline form I of the hydrobromide of the compound of formula II was let stand in conditions of 25° C./60% RH and 40° C./75% RH to examine its stability.

[4] = accelerated test condition, 70% humidity
[5] = extreme condition, 90% humidity
[6] = normal storage condition, 60% humidity/25° C.

DVS weight change [1]: 1.731%
Hygroscopicity [1]: slightly hygroscopic
Vapor sorption [1, 4]: about 1.809%
Vapor sorption [1, 5]: about 3.077%
Vapor sorption [1, 6]: about 1.438%
SMILES: NC(=O)C[C@H](c1ccc(S(=O)(=O)CC2CC2)cc1)c1nc2cc(-c3ccccc3OC(F)F)c(Cl)cc2[nH]1.O=C(O)/C=C\C(=O)O
Crystalline form before and after DVS (XRPD comparison) [1]: crystalline form did not change during DVS

DVS weight change [1]: 0.636%
Hygroscopicity [1]: slightly hygroscopic
Vapor sorption [1, 4]: about 0.702%
Vapor sorption [1, 5]: about 1.094%
Vapor sorption [1, 6]: about 0.589%
Chiral purity (%) ([2]; 40° C., 7 days): 99.293%
Color and appearance ([2]; 40° C., 7 days): White solid
Crystalline form ([2]; 40° C., 7 days): Not changed
Main peak purity (%) ([2]; 40° C., 7 days): 97.716%
Chiral purity (%) ([2]; 40° C., 14 days): 99.165%
Color and appearance ([2]; 40° C., 14 days): White solid
Crystalline form ([2]; 40° C., 14 days): Not changed
Main peak purity (%) ([2]; 40° C., 14 days): 97.727%
Bromide ion content (%) ([2]; 40° C., 30 days): 11.73%
Chiral purity (%) ([2]; 40° C., 30 days): 99.251%
Color and appearance ([2]; 40° C., 30 days): White solid
Crystalline form ([2]; 40° C., 30 days): Not changed
Main peak purity (%) ([2]; 40° C., 30 days): 97.644%
Chiral purity (%) ([2]; 60° C., 7 days): 99.299%
Color and appearance ([2]; 60° C., 7 days): White solid
Crystalline form ([2]; 60° C., 7 days): Not changed
Main peak purity (%) ([2]; 60° C., 7 days): 97.645%
Chiral purity (%) ([2]; 60° C., 14 days): 99.187%
Color and appearance ([2]; 60° C., 14 days): White solid
Crystalline form ([2]; 60° C., 14 days): Not changed
Main peak purity (%) ([2]; 60° C., 14 days): 97.671%
Bromide ion content (%) ([2]; 60° C., 30 days): 11.50%
Chiral purity (%) ([2]; 60° C., 30 days): 99.263%
Color and appearance ([2]; 60° C., 30 days): White solid
Crystalline form ([2]; 60° C., 30 days): Not changed
Main peak purity (%) ([2]; 60° C., 30 days): 97.630%
Chiral purity (%) ([2]; 75% RH, 7 days): 99.293%
Color and appearance ([2]; 75% RH, 7 days): White solid
Crystalline form ([2]; 75% RH, 7 days): Not changed
Main peak purity (%) ([2]; 75% RH, 7 days): 97.687%
Chiral purity (%) ([2]; 75% RH, 14 days): 99.179%
Color and appearance ([2]; 75% RH, 14 days): White solid
Crystalline form ([2]; 75% RH, 14 days): Not changed
Main peak purity (%) ([2]; 75% RH, 14 days): 97.705%
Bromide ion content (%) ([2]; 75% RH, 30 days): 11.73%
Chiral purity (%) ([2]; 75% RH, 30 days): 99.274%
Color and appearance ([2]; 75% RH, 30 days): White solid
Crystalline form ([2]; 75% RH, 30 days): Not changed
Main peak purity (%) ([2]; 75% RH, 30 days): 97.676%
Chiral purity (%) ([2]; 92.5% RH, 7 days): 99.294%
Color and appearance ([2]; 92.5% RH, 7 days): White solid
Crystalline form ([2]; 92.5% RH, 7 days): Not changed
Main peak purity (%) ([2]; 92.5% RH, 7 days): 97.706%
Chiral purity (%) ([2]; 92.5% RH, 14 days): 99.175%
Color and appearance ([2]; 92.5% RH, 14 days): White solid
Crystalline form ([2]; 92.5% RH, 14 days): Not changed
Main peak purity (%) ([2]; 92.5% RH, 14 days): 97.701%
Bromide ion content (%) ([2]; 92.5% RH, 30 days): 11.55%
Chiral purity (%) ([2]; 92.5% RH, 30 days): 99.268%
Color and appearance ([2]; 92.5% RH, 30 days): White solid
Crystalline form ([2]; 92.5% RH, 30 days): Not changed
Main peak purity (%) ([2]; 92.5% RH, 30 days): 97.653%
Chiral purity (%) ([2]; 4500 Lux, 7 days): 99.297%
Color and appearance ([2]; 4500 Lux, 7 days): White solid
Crystalline form ([2]; 4500 Lux, 7 days): Not changed
Main peak purity (%) ([2]; 4500 Lux, 7 days): 97.683%
Chiral purity (%) ([2]; 4500 Lux, 14 days): 99.152%
Color and appearance ([2]; 4500 Lux, 14 days): White solid
Crystalline form ([2]; 4500 Lux, 14 days): Not changed
Main peak purity (%) ([2]; 4500 Lux, 14 days): 97.660%
Bromide ion content (%) ([2]; 4500 Lux, 30 days): 11.18%
Chiral purity (%) ([2]; 4500 Lux, 30 days): 99.243%
Color and appearance ([2]; 4500 Lux, 30 days): White solid
Crystalline form ([2]; 4500 Lux, 30 days): Not changed
Main peak purity (%) ([2]; 4500 Lux, 30 days): 97.626%
Bromide ion content (%) ([2]; Initial, 0 days): 11.75%
Chiral purity (%) ([2]; Initial, 0 days): 99.298%
Color and appearance ([2]; Initial, 0 days): White solid
Crystalline form ([2]; Initial, 0 days): Crystalline
Main peak purity (%) ([2]; Initial, 0 days): 97.689%
Stability (conclusion of influencing factor study) ([2]; illumination, 40° C. and 60° C., high humidities of 75% and 92.5%): good physical and chemical stabilities
Chiral purity (%) ([3]; 25° C., 60% RH, Day 7): 99.297%
Color and appearance ([3]; 25° C., 60% RH, Day 7): White solid
Crystalline form ([3]; 25° C., 60% RH, Day 7): Not changed
Main peak purity (%) ([3]; 25° C., 60% RH, Day 7): 97.689%
Chiral purity (%) ([3]; 25° C., 60% RH, Day 14): 99.198%
Color and appearance ([3]; 25° C., 60% RH, Day 14): White solid
Crystalline form ([3]; 25° C., 60% RH, Day 14): Not changed
Main peak purity (%) ([3]; 25° C., 60% RH, Day 14): 97.697%
Bromide ion content (%) ([3]; 25° C., 60% RH, Month 1): 11.20%
Chiral purity (%) ([3]; 25° C., 60% RH, Month 1): 99.255%
Color and appearance ([3]; 25° C., 60% RH, Month 1): White solid
Crystalline form ([3]; 25° C., 60% RH, Month 1): Not changed
Main peak purity (%) ([3]; 25° C., 60% RH, Month 1): 97.649%
Bromide ion content (%) ([3]; 25° C., 60% RH, Month 2): 11.05%
Chiral purity (%) ([3]; 25° C., 60% RH, Month 2): 99.363%
Color and appearance ([3]; 25° C., 60% RH, Month 2): White solid
Crystalline form ([3]; 25° C., 60% RH, Month 2): Not changed
Main peak purity (%) ([3]; 25° C., 60% RH, Month 2): 97.661%
Chiral purity (%) ([3]; 25° C., 60% RH, Month 3): 99.283%
Color and appearance ([3]; 25° C., 60% RH, Month 3): White solid
Crystalline form ([3]; 25° C., 60% RH, Month 3): Not changed
Main peak purity (%) ([3]; 25° C., 60% RH, Month 3): 97.552%
Bromide ion content (%) ([3]; 25° C., 60% RH, Month 6): 11.82%
Chiral purity (%) ([3]; 25° C., 60% RH, Month 6): 99.228%
Color and appearance ([3]; 25° C., 60% RH, Month 6): White solid
Crystalline form ([3]; 25° C., 60% RH, Month 6): Not changed
Main peak purity (%) ([3]; 25° C., 60% RH, Month 6): 96.981%
Chiral purity (%) ([3]; 40° C., 75% RH, Day 7): 99.295%
Color and appearance ([3]; 40° C., 75% RH, Day 7): White solid
Crystalline form ([3]; 40° C., 75% RH, Day 7): Not changed
Main peak purity (%) ([3]; 40° C., 75% RH, Day 7): 97.661%
Chiral purity (%) ([3]; 40° C., 75% RH, Day 14): 99.174%
Color and appearance ([3]; 40° C., 75% RH, Day 14): White solid
Crystalline form ([3]; 40° C., 75% RH, Day 14): Not changed
Main peak purity (%) ([3]; 40° C., 75% RH, Day 14): 97.660%
Bromide ion content (%) ([3]; 40° C., 75% RH, Month 1): 11.49%
Chiral purity (%) ([3]; 40° C., 75% RH, Month 1): 99.262%
Color and appearance ([3]; 40° C., 75% RH, Month 1): White solid
Crystalline form ([3]; 40° C., 75% RH, Month 1): Not changed
Main peak purity (%) ([3]; 40° C., 75% RH, Month 1): 97.558%
Bromide ion content (%) ([3]; 40° C., 75% RH, Month 2): 10.93%
Chiral purity (%) ([3]; 40° C., 75% RH, Month 2): 99.328%
Color and appearance ([3]; 40° C., 75% RH, Month 2): White solid
Crystalline form ([3]; 40° C., 75% RH, Month 2): Not changed
Main peak purity (%) ([3]; 40° C., 75% RH, Month 2): 97.561%
Chiral purity (%) ([3]; 40° C., 75% RH, Month 3): 99.275%
Color and appearance ([3]; 40° C., 75% RH, Month 3): White solid
Crystalline form ([3]; 40° C., 75% RH, Month 3): Not changed
Main peak purity (%) ([3]; 40° C., 75% RH, Month 3): 97.259%
Bromide ion content (%) ([3]; 40° C., 75% RH, Month 6): 11.91%
Chiral purity (%) ([3]; 40° C., 75% RH, Month 6): 99.199%
Color and appearance ([3]; 40° C., 75% RH, Month 6): White solid
Crystalline form ([3]; 40° C., 75% RH, Month 6): Not changed
Main peak purity (%) ([3]; 40° C., 75% RH, Month 6): 96.412%
Bromide ion content (%) ([3]; Initial, 0): 11.75%
Chiral purity (%) ([3]; Initial, 0): 99.298%
Color and appearance ([3]; Initial, 0): White solid
Crystalline form ([3]; Initial, 0): Crystalline
Main peak purity (%) ([3]; Initial, 0): 97.689%
Stability (conclusion of long-term/accelerated study) ([3]; long term and acceleration, 6 months): good physical and chemical stability
SMILES: Br.NC(=O)C[C@H](c1ccc(S(=O)(=O)CC2CC2)cc1)c1nc2cc(-c3ccccc3OC(F)F)c(Cl)cc2[nH]1
Crystalline form before and after DVS (XRPD comparison) [1]: crystalline form did not change during DVS

Crystalline form before and after DVS (XRPD comparison) [1]: crystalline form changed during DVS
DVS weight change [1]: 1.235%
Hygroscopicity [1]: slightly hygroscopic
Vapor sorption [1, 4]: about 1.954%
Vapor sorption [1, 5]: about 2.534%
Vapor sorption [1, 6]: about 1.755%
SMILES: Cl.NC(=O)C[C@H](c1ccc(S(=O)(=O)CC2CC2)cc1)c1nc2cc(-c3ccccc3OC(F)F)c(Cl)cc2[nH]1 [Crystalline form β of hydrochloride of compound of formula I]

— US20220411380A1, “ACID ADDITION SALT OF RORy REGULATOR” (JIANGSU HENGRUI MEDICINE CO., LTD., priority 2019, published 2022)
